In a melting point compilation (Tetko et al.; mined from patent text by program, amines drawn as free bases though some values may be those of a salt):

melting point | Compound
322 °C | CCCn1c(=O)[nH]c2ccc(C(=O)c3nc(Br)c4ccccn34)cc2c1=O
130 to 131 °C | COC(=O)[C@H](Cc1ccc(OC(C)=O)c(OC(C)=O)c1)NC(=O)CNC(=O)OCc1ccccc1
115 to 117 °C | CCCOc1nccc2c1C(c1ccccc1C(F)(F)F)C(C(=O)OCC)=C(C)N2 (stereo not given)
302 °C | O=CNn1cc(C(=O)O)c(=O)c2cc3c(cc21)OCO3
214 °C | O=C(O)Cc1c(C(=O)c2ccc(Cl)cc2)[nH]c2cc(F)ccc12
171 to 172 °C | CCOP(=O)(/C=C/c1cn(-c2ccccc2)nc1OCc1ccc(OCc2nc(-c3ccc(OC)c(C(=O)O)c3)oc2C)c(OC)c1)OCC
126 to 128 °C | O=C1NCC2(CCN(C(=O)OCc3ccccc3)CC2)O1
135 °C | O=C(NCc1ccccn1)Nc1cc(N2C(=O)C3(CCCC3)c3ccccc32)ccn1
96 to 98 °C | COc1ccc(/C=C(\C#N)c2ccccc2C(F)(F)F)cc1OC1CCCC1
204 to 206 °C | O=[N+]([O-])c1ccc(S(=O)(=O)c2cc(Br)nc(Br)c2)cc1
188 °C | NC(=O)NCCNc1ccc([N+](=O)[O-])cc1Cl
154 to 156 °C | O=C(N[C@@H]1CN(C2CCCCC2)C[C@H]1O)c1ccccc1 (relative stereo)
240 °C | CN1CC(=O)N2[C@H](c3ccc4c(c3)CCN4)c3[nH]c4ccccc4c3C[C@@H]2C1=O
52 to 54 °C | O=C(c1ccc(C2CCCCC2)cc1)c1cccnc1
174 to 175 °C | O=C1COc2cc(SCc3ccc(Cl)cc3)ccc2N1
192 to 194 °C | O=C(CC1c2cc(Cl)ccc2S(=O)(=O)N1c1ccccc1)NO (stereo not given)

Second part, the molecule before the results:

Compound | melting point
Cc1cc(C=C2SC(=S)NC2=O)cc2c1OCC(=O)N2Cc1ccc(CN2CCCCC2)cc1 | 277 to 278 °C
Cc1nc[nH]c1CSCCN=C(NCCSCc1[nH]cnc1C)NC(N)=O | 60 to 70 °C
CC1(C)CN(CC(C)(O)c2ccc3c(c2)OCO3)c2nc(-c3ccncn3)cc(=O)n2C1 (stereo not given) | 194 to 196 °C
CC1(C)CC(SCc2cc3c(cc2Cl)OCO3)=NO1 | 88 °C
O=[N+]([O-])c1cnn2c(-c3ccc(C(F)(F)F)cc3)ccnc12 | 191 to 193 °C
CCOC(=O)c1csc(-c2ccc3cc4c(cc3c2)C(C)(C)CCC4(C)C)c1 | 107 to 108 °C
CCC1=C(C)CN(C(=O)NCC2CCOc3cc(O)c(S(N)(=O)=O)cc32)C1=O (stereo not given) | 175 °C
C1CNCCNCCNCNCCNC1 | 49 to 51 °C
CC12CC(F)C3C4CCC(=O)C=C4CC(CCCCCCl)C3C1CCC2=O (stereo not given) | 51 to 53 °C
C=CCN1CC(C)N(C(c2ccc(C(=O)N(CC)CC)cc2)c2cccc(O)c2)CC1C (stereo not given) | 170 to 171 °C
COC1CC(n2cc(C=CBr)c(=O)[nH]c2=O)OC1CCl (stereo not given) | 145 °C
COc1cc(C(O)c2ccc(C(=O)N(C(C)C)C3CCCCC3)cc2)cc(OC)c1OC (stereo not given) | 158 to 160 °C
COCCc1ccc(OCC(O)CNC(C)COc2ccc(O)c(C(N)=O)c2)cc1 (stereo not given) | 139 to 142 °C
CC(CS)C(=O)NC(CC(=O)O)C(=O)O (stereo not given) | 129 to 131 °C
CC1(CO)CCC2(CC1)OCCO2 | 42 to 43 °C
CCOC(=O)CCCCOc1cccc(O)c1C=O | 32 to 33 °C
COC(=O)CCCCCCCCCCC(C)=S | < 25 °C
CN(C1CC(C)(C)Oc2ccc(O)cc21)S(C)(=O)=O (stereo not given) | 159 to 161 °C
COc1cc2c3c(cccc3c1N1CCC(N)C1)C(=O)N(O)C2=O (stereo not given) | 217 to 222 °C
CCCCn1ccc(-c2ccc3c(c2)OCCN3[C@H]2CC[C@H](O)CC2)c(Cl)c1=O | 178 °C
CC(=O)SC[C@@H](C)C(=O)N1C(=O)N(C)C[C@H]1C(=O)OC(C)(C)C | 104 °C
COc1nc(OC)c(C(C)C)c(C(C#N)c2cc(C)cc(Cl)c2)n1 (stereo not given) | 105 to 106 °C
OCC1OC(n2cnc3c(NC4CCC(O)C4)ncnc32)C(O)C1O (stereo not given) | 208 to 210 °C
COc1ccc(C2CC=CCC2NC(=O)c2ccc(OCC3CC3)c(OCC3CC3)c2)cc1OC (stereo not given) | 152 to 154 °C
